From patent US20060222617A1, “Water-soluble cosmetic composition and method for manufacturing the same” (Taiyen Biotech. Co. Ltd., priority 2005, published 2006) come the findings set out here.

Read-outs that look alike come from different tables or passages of the source.

How the values of this data set were obtained:
A lyophilizated product solubility test and a stability test are conducted to compare the cosmetic composition of the present invention with the start materials of the cosmetic composition.

In the case of `O=C1O[C@H]([C@@H](O)CO)C([O-])=C1OP(=O)([O-])[O-].O=C1O[C@H]([C@@H](O)CO)C([O-])=C1OP(=O)([O-])[O-].[Mg+2].[Mg+2].[Mg+2]` [Magnesium ascorbyl phosphate, magnesium ascorbyl phosphate], the Solubility turned out to be 2 wt % (after processing the cosmetic composition (lyophilized with water-soluble collagen, rehydrated with the amount of water removed)) and 0.5 wt % (start materials of the cosmetic composition (without processing)).
